{"source": "patent US8071548B2", "about": "“Method of reducing injury to mammalian cells” (Nono, Inc., priority 2002, dated 2011)", "key": {"[1]": {"test_system": "reactive oxygen species", "test": "ROS production (DHR fluorescence)", "type": "cell-based, mouse", "procedure": "The production of reactive oxygen species (ROS) was measured with DHR. In brief, DHR is oxidized to a fluorescent rhodamine-123 (Royall and Ischiropoulos, 1993), and the consequent rise in fluorescence may be used as an indicator of ROS production.\nROS were measured as previously described (Tymianski et al., 1998; Aarts et al., 2003). In brief, cultures were pre-loaded for 30 min with 5 μM DHR and subjected to the experimental insult. DHR fluorescence was measured in a multiwell plate fluorescence scanner (Cytofluor II, PerSeptive Biosytems, Framingham, Mass., USA; 485 nm excitation, 530 emission). DHR fluorescence was normalized to baseline using the formula at (Ft−Fo)/F0; Where Ft=DHR fluorescence at time t, Fo=DHR fluorescence at time zero. DHR fluorescence images were also acquired using a microscope (465-495 nm excitation and 515-555 nm emission) as described above for TMRM."}, "[2]": {"test_system": "mitochondrial membrane potential", "conditions": "10 μM; 10 min", "method": "Cultures were preincubated at 37° C. with 10 nM TMRM for 30 min. […] TMRM was maintained in the solution throughout the experiment. TMRM fluorescence was imaged on a Nikon Eclipse TE-2300 microscope using 20× objective (Nikon), a 510-560 nm bandpass excitation and 590 nm emission filter. Images were acquired using a Hamamatsu ORCA-ER digital camera and Simple PCI software (Nikon). Fluorescence from 10-30 cells was averaged and background subtracted for each image."}, "[3]": {"test_system": "cultured cortical neurons"}, "[4]": {"test_system": "cortical neuronal cultures", "test": "DNA fragmentation assays (TUNEL, DNA gel electrophoresis)", "type": "cell-based, mouse", "text": "DNA fragmentation was examined using the terminal deoxynucleotidyl transferase-mediated end nick labeling (TUNEL) method (Gavrieli et al., 1992; Didenko and Hornsby, 1996; Didenko et al., 1998) and by DNA agarose gel electrophoresis (Hill et al., 2000).\nTUNEL Assay: Nuclear DNA strand breaks were detected by enzymatically labeling free 3′-OH termini with modified nucleotides provided in the Apoptag kit (Intergen) using the manufacturer's instructions. Visualization of TUNEL-stained nuclei was achieved using an anti-digoxigenin antibody conjugated to a fluorescein or peroxidase reporter molecule (ApopTag Peroxidase Kits S7110 and S7100, respectively, Intergen). In fluorescence experiments, nuclei were counterstained using 5 ng/ml Hoechst 33258 (1:5000, Transduction Labs), and visualized using 465-495 nm excitation and 515-555 nm emission for fluorescein and 340 nm excitation and 510-40 nm emission for Hoechst. The number of TUNEL positive cells was expressed as a fraction of the total cell number in the field. In each culture, 4-8 random fields were quantified. Approximately 100-200 cells were counted per culture, and at least 3 experiments were performed for each set of counts.\nDNA Gel Electrophoresis: DNA laddering was evaluated as described elsewhere (Hill et al., 2000). In brief, all tissue was collected from each culture well and pelleted by centrifugation (1000 rpm; 1 min). The cells were digested for 2 h at 56° C. in buffer containing (in mM) 10 Tris pH 8.0, 2 EDTA pH8, 400 NaCl, 0.5% SDS, 1 mg/ml proteinase K. Digest solution was subjected to phenol/chloroform extraction and total DNA was precipitated from the aqueous layer with an equal volume of 100% ethanol. The DNA pellet was dried, dissolved in 50 μl ddH20 and kept overnight at 4° C. 10 μg DNA was prepared on a 2% agarose gel. Gels were stained with ethidium bromide and photographed."}, "[5]": {"test_system": "cortical neuronal cultures", "test": "Sublethal stretch injury with or without NMDA, cell death in cortical cultures", "type": "cell-based", "conditions": "200 μM", "procedure": "[…]. In brief, cerebral cortices from 10 to 12 embryos were incubated for 10 min in 0.05% trypsin-EDTA, dissociated by trituration, and plated on flexible membranes coated with poly-L-ornithine in 6 well plates (Flexcell International Corporation, Hillsborough, N.C.) at a density of 3.25×10^6 cells per well. Plating medium consisted of DMEM supplemented with 10% heat-inactivated horse serum (Gibco) and (in mM) 2 glutamine, 25 glucose, and 26 bicarbonate. The cultures were maintained at 37° C. in a humidified 5% CO2 atmosphere. After 3 days in vitro, growth of non-neuronal cells was halted by a 48 h exposure to 10 μM FDU-solution (5 μM uridine, 5 μM (+)-5-fluor-2′-deoxyuridine). This produces cultures in which >85% of the cells are neurons, based on immunohistochemical staining for glial fibrillary associated protein (exclusive to astrocytes), and for the NMDAR1 subunit (not shown). The cultures were used for experiments after 12-14 days in vitro.\nThe cultures, grown on silastic membranes as above, were placed in the Flexercell® FX-3000™ Strain Unit (Flexcell Int., Inc.), a computer-driven instrument that uses a vacuum pulse to deform the culture substrate. In all experiments, the cortical cultures were stretched to 130% of their original length for 1 s, inducing a sublethal injury as recently characterized by us (Arundine et al., 2003). The stretched neurons maintained cell membrane integrity, viability, and electrophysiological function.\nCell death was determined by serial quantitative measurements of propidium iodide (PI) fluorescence using a multiwell plate fluorescence scanner (Cytofluor II, PerSeptive Biosytems, Framingham, Mass., USA) as described previously (Sattler et al., 1997; Sattler et al., 1998). In brief, the culture medium in each tissue culture well was replaced with control solution containing 50 μg/ml PI, and a baseline fluorescence reading was taken. Sequential readings were then taken at appropriate intervals over the 20 h observation period. The fraction of dead cells in each culture at a given time was calculated as: Fraction dead=(Ft−Fo)/FNMDA Where Ft=PI fluorescence at time t, F0=initial PI fluorescence at time zero and FNMDA=background subtracted PI fluorescence of identical cultures from the same dissection and plating, 20-24 h after a 60 min exposure to 1 mM NMDA at 37° C. Based on manual observations at the time of validation of this technique, this NMDA exposure routinely produced near complete neuronal death in each culture but had no effect on surrounding glia (also see (Bruno et al., 1994; David et al., 1996; Sattler et al., 1997)). Adding Triton X-100 (0.1%) to cultures treated in this manner produced an additional 10-15% increase in PI fluorescence due to permeabilization of non-neuronal cell membranes, consistent with a 10-15% glial component in the cultures.\nAll experiments were performed at 37° C. Unless otherwise indicated, all solutions contained nimodipine (2 μM) and CNQX (10 μM) to restrict the actions of applied NMDA to NMDARs by preventing the secondary activation of other pathways (Sattler et al., 1998). In general, the cultures were washed ×2 with control solution and immediately stretched to 130% of their original length for 1 s. After the stretch, they were washed ×1 with control solution alone or challenged with an additional treatment (e.g., NMDA) and placed at 37° C. for 1 h. They were then washed ×1 with control solution and then with control solution containing 50 μg/ml PI to obtain a baseline reading. In pilot studies, baseline readings obtained at this stage were similar to those obtained by staining the cells with PI prior to stretch. As the stretch causes splashing of the bath solution, staining with PI after stretch reduced biohazard potential and artifacts associated with PI outside the culture well. Unstretched controls were manipulated identically to stretched cultures."}, "[6]": {"test_system": "transient middle cerebral artery occlusion", "test": "Transient MCAO, dose study of infarct size", "type": "in vivo, Sprague-Dawley rats", "conditions": "6 mg/kg 1 h before the stroke"}, "[7]": {"test_system": "caspase 3", "test": "Active caspase 3 immunofluorescence", "type": "cell-based, mouse", "conditions": "positive control", "procedure": "Cultures were fixed with warm 4% paraformaldehyde and 4% sucrose in PBS for 20 min, permeabilized with 0.1% Triton X-100 for 10 min at 4° C., and blocked with 10% goat serum in PBS for 1 h at RT. Immunofluorescence was visualized with an inverted Nikon microscope using a 40× oil immersion lens. FITC, rhodamine and Hoechst were visualized using 465-495 excitation and 515-555 nm emission, 510-560 nm excitation and 590 nm emission, and 340 nm excitation and 510 nm emission, respectively. Active caspase 3 was labelled by incubating the cultures with a purified rabbit monoclonal anti-active caspase 3 antibody (1:300; BD PharMingen) and a fluorescein-conjugated goat anti-mouse IgG secondary antibody (1:500; Transduction Labs). Nitrotyrosine was labelled by incubating the cultures with a rabbit polyclonal α-nitrotyrosine primary antibody (1:300; Upstate) and a rhodamine-conjugated goat anti-rabbit IgG secondary antibody (1:500; Transduction Labs). AIF was labelled by incubating the cultures with an AIF antibody (1:200; Santa Cruz, (Zhang et al., 2002)) and a rhodamine-conjugated goat anti-mouse IgG secondary antibody (1:500; Transduction Labs). In some experiments, nuclei were counter-stained with Hoechst 33258 (1:5,000, Transduction Labs)."}, "[8]": {"test_system": "NMDARs", "test": "Whole cell patch-clamp recordings of NMDA currents in cultured neurons", "type": "cell-based, mouse", "conditions": "intracellular dialysis of 1 mM peptide, 300 μM NMDA"}, "[9]": {"test_system": "traumatic brain injury", "test": "Lateral fluid percussion injury model of TBI", "type": "in vivo, Sprague-Dawley rats", "conditions": "analyzed 24 h after injury", "procedure": "Adult male Sprague-Dawley rats weighing approximately 350 g were ordered from Charles River and anesthesia was induced using a gaseous mixture of 1:2 oxygen:nitrous oxide with 2% halothane. The halothane level was reduced to 1% during surgical manipulations and weights were recorded prior to preparatory surgery. The preparatory surgery for these experiments included the cannulation of the left femoral vein and a 5 mm diameter craniotomy. The venous cannula is sealed and tucked inside the animal whereupon the wound is sutured. The center of the craniotomy lies about 2.5 mm to the right of the sagittal suture, between the bregma and lambda. A modified Leur-loc is attached to the perimeter of the craniotomy with superglue (FIG. 28).\nDental acrylic (GC America Inc, Alsip, Ill.) is applied around the modified Leur-loc to seal it into place. A small piece of gelfoam is placed into the opening and the skin is sutured over the entire setup. The animal is then returned to its cage. The following day, the animal is re-anesthetized, weighed, and its wound is re-opened. The gelfoam is removed and the animal is attached to the fluid percussion device via the modified Leur-loc. At this time, the animal is given a ˜20 ms saline injection at approximately 2.4 atmospheres (350 mV on the oscilloscope) using the fluid percussion injury device (Custom Design & Fabrication, Richmond, Va.) (FIG. 29).\nOn occasion, the animal ceases spontaneous breathing following the injury and 1-2 chest compressions are required for resuscitation. The modified Leur-loc along with the dental acrylic is removed en bloc immediately following the injury. The animal is placed on 100% oxygen while its wound is cleaned and resealed with Vetbond tissue adhesive (3M Worldwide, Maplewood, Minn.). The rat's body temperature during the recovery time is maintained at 37° C. with a homeothermic warming blanket (Harvard Bioscience Inc, Holliston, Mass.). The amount of time necessary for the righting reflex to return is recorded and the animal is placed back into its cage. At 3 h post-injury, the animal is re-anesthetized and weighed again. The wound overlying the femoral cannula is opened and the cannula is cleaned out using heparinized saline. […] The cannula is sealed, tucked again into the animal, and the wound is re-sutured. At 24 h post-injury, the animal is re-anesthetized and weighed again. The rat is transcardially perfused using heparinized saline to clean out the cardiovascular system, followed by a 4% formalin fixative solution. The rat is decapitated and left in the fixative solution overnight. The brain is extracted the following day and processed. The volume of damaged brain (FIG. 26, right graph) is assessed according to the same methods as described in Aarts et al., 2002, for assessing stroke volumes. […]"}, "[10]": {"test_system": "cortical neuronal cultures", "test": "Staurosporine-induced cell death in cortical cultures", "type": "cell-based, mouse", "conditions": "200 μM for 48 h, staurosporine 1 μM"}, "[11]": {"conditions": "20 h post-insult, 200 μM MnTBAP or 100 μM L-NAME"}}, "data": [{"compound": "N#CC(C#N)=NNc1ccc(OC(F)(F)F)cc1", "note": "[FCCP, reference compound]", "values": [{"measurement": "DHR fluorescence", "setting": "[1]; mitochondrial uncoupler", "value": "abolished all DHR fluorescence"}, {"measurement": "mitochondrial depolarization (loss of TMRM fluorescence)", "setting": "[2]", "value": "profound mitochondrial depolarization"}]}, {"compound": "O=C(O)c1ccc(-c2c3nc(c(-c4ccc(C(=O)O)cc4)c4ccc([n-]4)c(-c4ccc(C(=O)O)cc4)c4nc(c(-c5ccc(C(=O)O)cc5)c5ccc2[n-]5)C=C4)C=C3)cc1.[Mn+3]", "note": "[MnTBAP, manganese(III) tetrakis(4-benzoic acid) porphyrin]", "values": [{"measurement": "DHR fluorescence (ROS production)", "setting": "[1]; 200 μM pretreatment", "value": "reduced DHR fluorescence in all culture conditions"}, {"measurement": "SNP toxicity", "setting": "[3]; SNP 300 μM, 200 μM MnTBAP pretreatment", "value": "reduced SNP toxicity to baseline"}, {"measurement": "DNA laddering after stretch followed by NMDA", "setting": "[4]; [11]", "value": "virtually abolished"}, {"measurement": "TUNEL staining after stretch followed by NMDA", "setting": "[4]; [11]", "value": "virtually abolished"}, {"measurement": "cell death in stretched cells treated with 30 μM NMDA", "setting": "[5]; 30 min preincubation, 20 h", "value": "completely eliminated cell death"}]}, {"compound": "CC(C(O)c1ccc(O)cc1)N1CCC(Cc2ccccc2)CC1", "note": "(centres unmarked) [Ro25-6981, reference compound]", "values": [{"measurement": "infarct size versus control dose", "setting": "[6]", "value": "significant reduction in infarct size"}]}, {"compound": "N[C@@H](CSN=O)C(=O)O", "note": "[S-nitrosocysteine]", "values": [{"measurement": "NO donor toxicity", "setting": "[3]", "value": "highly toxic"}]}, {"compound": "CN[C@@H]1C[C@H]2O[C@@](C)([C@@H]1OC)n1c3ccccc3c3c4c(c5c6ccccc6n2c5c31)C(=O)NC4", "note": "[staurosporine]", "values": [{"measurement": "DNA laddering by gel electrophoresis", "setting": "[4]; 1 μM for 48 h", "value": "DNA ladders suggestive of intenucleosomal DNA fragmentation"}, {"measurement": "TUNEL staining", "setting": "[4]; 1 μM for 48 h", "value": "TUNEL staining was observed"}, {"measurement": "active caspase 3 staining", "setting": "[7]", "value": "stained for active caspase 3"}]}, {"compound": "CSKDTMEKSESL", "values": [{"measurement": "peak NMDA current amplitudes", "setting": "[8]", "value": "2540±281", "unit": "pA"}]}, {"compound": "Tat-KLSSIETDV", "values": [{"measurement": "total volume of injured brain", "setting": "[9]; 3 hours after TBI", "value": "significantly reduced"}, {"measurement": "fraction of dead cells in cerebral cortex and hippocampus ipsilateral to the injury", "setting": "[9]; via femoral cannula 3 hours after TBI", "value": "markedly reduced fraction of dead cells"}]}, {"compound": "z-val-ala-asp-fluoromethylketone [z-VAD-FMK]", "values": [{"measurement": "DNA fragmentation of neurons exposed to stretch+NMDA", "setting": "[4]; DNA gel electrophoresis", "value": "did not reduce DNA fragmentation"}, {"measurement": "attenuation of staurosporine-induced death", "setting": "[10]", "value": "significantly reduced"}, {"measurement": "attenuation of staurosporine-induced death", "setting": "[10]; listed as zvadFMK", "value": 47, "unit": "%"}, {"measurement": "cytotoxicity in stretched cultures with 30 μM NMDA", "setting": "[5]", "value": "no significant reduction in cytotoxicity"}, {"measurement": "toxicity to unstretched cultures or stretch alone", "setting": "[5]", "value": "not toxic"}]}]}
